Where “and” joins values, the source holds several entries; their conditions need not be identical. Equal values may be shown once. Read-outs that look alike come from different tables or passages of the source.
Tests used:
[1] = cited from earlier work
plasma esterase = plasma esterase (Homo sapiens, UniProt P06276); settings: cited from earlier work
[2] = test system: central pore of sodium channels; settings: cited from earlier work
[3] = test system: procaine induced convulsion; settings: diazepam 0.3 mg/kg intravenous; procaine 100-150 mg/kg intraperitoneally; animal model; cited from earlier work
[4] = Pharmacokinetics of intravenous procaine; format: in vivo; settings: 95 mg bolus IV, 70 kg human, calculated
Protocol: In a 70 kg human, with an average central compartment procaine blood volume of distribution of 0.57 L/kg procaine or 40.0. L, an initial blood level of 2.36 μg/ml is obtained with a 95 mg bolus IV procaine administration.[16]

[5] = test system: patients with acute or chronic pain; settings: cited from earlier work
[6] = Ion trapping effects of charged and uncharged procaine (pH=pKa+log B/BH+)
Excerpt: As the molecule transits from the blood to neural cytoplasm, procaine becomes more charged and less lipophilic within the cytoplasm of the neuron, and the concentration of the active charge species increases. The charged active species is essentially trapped in the cytoplasm, only being able to exit after hydrolysis to PABA and DEAE or through distribution.
The intraneural pH of human dorsal root ganglia is not known, but it is generally accepted that intraneural pH decreases with neural activity. The pH of cervical ganglia of a rodent is reported as 7.30-6.51, and the typical resting or “steady-state” pH within a hippocampal neuron is reported as ˜7.03-7.46,[30]

[7] = test system: dorsal root ganglia neurons; settings: neurons with an abundance of Nav 1.8 channels; cited from earlier work
[8] = in vivo, po; cited from earlier work
[9] = test system: patients with chronic pain; settings: cited from earlier work
[10] = in vivo, iv; cited from earlier work

plasma esterase, sequence (P06276 29-602): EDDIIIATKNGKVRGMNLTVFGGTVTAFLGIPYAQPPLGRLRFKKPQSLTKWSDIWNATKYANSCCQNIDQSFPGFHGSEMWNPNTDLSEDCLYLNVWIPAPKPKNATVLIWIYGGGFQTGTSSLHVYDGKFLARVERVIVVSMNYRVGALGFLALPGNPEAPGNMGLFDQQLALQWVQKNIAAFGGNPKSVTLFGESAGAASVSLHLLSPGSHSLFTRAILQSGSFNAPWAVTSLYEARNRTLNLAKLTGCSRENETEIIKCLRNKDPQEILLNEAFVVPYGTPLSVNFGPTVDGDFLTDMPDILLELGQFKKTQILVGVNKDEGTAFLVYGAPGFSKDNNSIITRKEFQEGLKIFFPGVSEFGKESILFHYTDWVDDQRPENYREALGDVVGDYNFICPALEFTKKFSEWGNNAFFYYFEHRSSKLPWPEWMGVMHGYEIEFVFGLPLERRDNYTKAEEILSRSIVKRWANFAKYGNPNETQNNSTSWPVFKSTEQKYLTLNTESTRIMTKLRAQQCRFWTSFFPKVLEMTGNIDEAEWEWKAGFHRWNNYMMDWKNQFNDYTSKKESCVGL

For `CCN(CC)CCO` [DEAE, diethylaminoethanol], the pKa [1] is given as roughly 10.1.

For `CCN(CC)CCOC(=O)c1ccc(N)cc1Cl` [2-chloroprocaine], the “Rate of hydrolysis by plasma esterase relative to procaine” value (plasma esterase) is given as 4 ×.

In the case of `Nc1ccc(C(=O)O)cc1` [PABA, para-aminobenzoic acid], the pKa [1] is given as roughly 4.6.

For `Cc1cccc(C)c1NC(=O)CN` [GX, glycinexylidide], the “Potency relative to the parent drug lidocaine” value [2] is given as “nearly ineffective”.

For `CN1C(=O)CN=C(c2ccccc2)c2cc(Cl)ccc21` [diazepam], the “Effect on procaine induced convulsion” value [3] is listed as “aborted procaine induced convulsion”.

In the case of `CCNCC(=O)Nc1c(C)cccc1C` [MEGX, monoethylglycinexylidide], the “Potency relative to the parent drug lidocaine” value [2] is given as 80%.

For `CCN(CC)CCOC(=O)c1ccc(N)cc1` [procaine], the Initial blood level [4] is listed as 2.36 µg/mL, the “Relief of pain and discomfort” value ([5]; Betcher, IV, 92 patients, various orthopedic conditions) is listed as “adequate relief” and the Analgesia ([5]; Kahl, IV infusion 2000 mg over 24 hours, acute pancreatic pain) is listed as “poor analgesia”. For the same molecule, the Analgesia ([5]; Keats, IV, approximate dose 370 mg, 53 patients, acute post-operative pain) was “inadequate analgesia”, the “Chronic pain relief (patients)” value ([5]; Shanbrom, 500 mg to 1000 mg IV, postherpetic neuralgia) was 13/16 and the “Relief of acute pain” value ([5]; Zeluff, IV 1000 mg, 3 patients, traumatic military injuries) was “dramatic relief”. For the same molecule, the “[BH+]/[B]” value ([6]; Blood, pH 7.4) was 32, the “[BH+]/[B]” value ([6]; CSF, pH 7.32) was 38 and the “[BH+]/[B]” value ([6]; Ganglia or intraneural, pH 7.30-6.51) was 40-245. For the same molecule, the “[BH+]/[B]” value ([6]; Interstitial, pH 7.4) was 32, the “Predicted intraneural [BH+] relative to blood [BH+]” value ([6]; ion trapping and diminished CSF pseudocholinesterase activity, without Michaelis-Menten kinetics) was no more than 750 times and the “Factor of increase of [BH+]/[B] from blood to intraneural cytoplasm” value ([6]; ion trapping only) was “at least 7.5”. For the same molecule, the “Minimum concentration for block of dorsal root ganglia neurons” value [7] was 10 µM, the “Peak plasma procaine levels” value [8] was 0.2-3.1 mg percent and the “Efficacy (patients successfully treated)” value ([9]; Balfour 1951, oral 80 mg with Metamucil, chronic dysphagia) was 8. For the same molecule, the “Efficacy (patients with relief / patients treated)” value ([9]; Beinhauer 1954, oral 3000 mg/day, herpes zoster or burning tongue syndrome) was 9/14, the “Efficacy (patients with analgesia / patients treated)” value ([9]; Klein 1953, oral 450 mg TID, chronic pain from arthritis) was 38/50 and the “Efficacy (patients with analgesia / patients treated)” value ([9]; Koch 1989, oral 200 mg BID, procaine double salt complex, chronic pain from rheumatoid arthritis) was 29/30. The “Efficacy (patients with analgesia / patients treated)” value ([9]; Kupperman 1957, oral 1000 mg TID with meals, arthritis) was “no analgesia and 0/50”, the “Efficacy (patients with chronic pain relief / patients treated)” value ([9]; Traut 1952, oral 3000 mg/day in divided doses after meals, arthritis) was 5/32 and the “Blood level considered therapeutic” value [10] was 10000 ng/mL.

From US20240130998A1, “ANALGESIA FROM ORAL PROCAINE A FORGOTTEN VOLTAGE GATED SODIUM CHANNEL BLOCKER” (priority 2023, published 2024)
